In ChEMBL document CHEMBL1201862, “PubChem BioAssay data set” (2004):
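Five compound concentrations were applied to cells in 96-well plates for 48 hours; endpoints were derived by simple linear interpolation of the resulting dose-response curve. At the GI50, growth is halved.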 Activity calls are given as the source filed them. Rule as the data show it: active = GI50 up to about 1.1 µM and inactive = higher.

Legend:
Assay in all cases: DTP human tumour cell line panel, 48 h
DLD-1 = system: DLD-1
SK-MEL-28 = system: SK-MEL-28
KM-20L2 = system: KM-20L2
SNB-78 = system: SNB-78
SK-MEL-5 = system: SK-MEL-5
DMS-114 = system: DMS-114
HCT-116 = system: HCT-116
TK-10 = system: TK-10
NCI/ADR-RES = system: NCI/ADR-RES
OVCAR-8 = system: OVCAR-8
786-0 = system: 786-0
NCI-H23 = system: NCI-H23
NCI-H522 = system: NCI-H522
EKVX = system: EKVX
HCT-15 = system: HCT-15
KM12 = system: KM12
UO-31 = system: UO-31
SR = system: SR
HOP-62 = system: HOP-62
OVCAR-4 = system: OVCAR-4
SF-268 = system: SF-268
HOP-18 = system: HOP-18
MDA-MB-435 = system: MDA-MB-435
SF-539 = system: SF-539
Malme-3M = system: Malme-3M
MOLT-4 = system: MOLT-4
PC-3 = system: PC-3
IGROV-1 = system: IGROV-1
DMS-273 = system: DMS-273
M14 = system: M14
HCC 2998 = system: HCC 2998
CCRF-CEM = system: CCRF-CEM
M19-MEL = system: M19-MEL
HT-29 = system: HT-29
Hs-578T = system: Hs-578T
BT-549 = system: BT-549
MDA-N = system: MDA-N
COLO 205 = system: COLO 205
LOX IMVI = system: LOX IMVI
UACC-62 = system: UACC-62
OVCAR-3 = system: OVCAR-3
RPMI-8226 = system: RPMI-8226
UACC-257 = system: UACC-257
SF-295 = system: SF-295
A498 = system: A498
CAKI-1 = system: CAKI-1
MCF7 = system: MCF7
NCI-H460 = system: NCI-H460
DU-145 = system: DU-145
A549 = system: A549
SK-OV-3 = system: SK-OV-3
SNB-19 = system: SNB-19
SK-MEL-2 = system: SK-MEL-2
SN12C = system: SN12C
ACHN = system: ACHN
SNB-75 = system: SNB-75
HL-60 = system: HL-60
MDA-MB-231 = system: MDA-MB-231
K562 = system: K562
SW-620 = system: SW-620
HOP-92 = system: HOP-92
T47D = system: T47D
OVCAR-5 = system: OVCAR-5
RXF 393 = system: RXF 393
NCI-H226 = system: NCI-H226
LXFL 529 = system: LXFL 529
U-251 = system: U-251

CO[C@H]1C[C@@H]2CC[C@@H](C)[C@@](O)(O2)C(=O)C(=O)N2CCCC[C@H]2C(=O)O[C@H]([C@H](C)C[C@@H]2CC[C@@H](O)[C@H](OC)C2)CC(=O)[C@H](C)C=C(C)[C@@H](O)[C@@H](OC)C(=O)[C@H](C)C[C@H](C)/C=C/C=C/C=C1C
GI50 (DLD-1): 10 µM (inactive) | GI50 (SK-MEL-28): 0.251 µM (active) | GI50 (KM-20L2): 16 µM (inactive) | GI50 (SNB-78): 0.1 µM (active) | GI50 (SK-MEL-5): 0.417 µM (active) | GI50 (DMS-114): 0.1 µM (active) | GI50 (HCT-116): 5.71 µM (inactive) | GI50 (TK-10): 0.46 µM (active) | GI50 (NCI/ADR-RES): 0.358 µM (active) | GI50 (OVCAR-8): 0.0564 µM (active) | GI50 (786-0): 0.108 µM (active) | GI50 (NCI-H23): 0.394 µM (active) | GI50 (NCI-H522): 1.34 µM (inactive) | GI50 (EKVX): < 0.0104 µM (active) | GI50 (HCT-15): 0.117 µM | GI50 (KM12): 5.96 µM (inactive) | GI50 (UO-31): < 0.01 µM (active) | GI50 (SR): < 0.01 µM (active) | GI50 (HOP-62): < 0.0107 µM (active) | GI50 (OVCAR-4): < 0.01 µM (active) | GI50 (SF-268): 1.77 µM (inactive) | GI50 (HOP-18): 11.8 µM (inactive) | GI50 (MDA-MB-435): 1.28 µM (inactive) | GI50 (SF-539): < 0.0111 µM (active) | GI50 (Malme-3M): 0.0243 µM (active) | GI50 (MOLT-4): 0.0272 µM (active) | GI50 (PC-3): 0.0211 µM (active) | GI50 (IGROV-1): < 0.01 µM (active) | GI50 (DMS-273): 11 µM (inactive) | GI50 (M14): 7.55 µM (inactive) | GI50 (HCC 2998): 0.167 µM (active) | GI50 (CCRF-CEM): < 0.01 µM (active) | GI50 (M19-MEL): 0.1 µM (active) | GI50 (HT-29): 0.817 µM (active) | GI50 (Hs-578T): 0.0193 µM (active) | GI50 (BT-549): 1.12 µM (inactive) | GI50 (MDA-N): 1.56 µM (inactive) | GI50 (COLO 205): 8.24 µM (inactive) | GI50 (LOX IMVI): 0.0175 µM (active)

O=C1C=C(NCCc2ccccc2)c2ccccc2C1=O
GI50 (DLD-1): 6.03 µM (inactive) | GI50 (UACC-62): 1.79 µM (inactive) | GI50 (SK-MEL-28): 1.87 µM (inactive) | GI50 (KM-20L2): 6.95 µM (inactive) | GI50 (OVCAR-3): 1.44 µM (inactive) | GI50 (RPMI-8226): 14.8 µM (inactive) | GI50 (SNB-78): 16.6 µM (inactive) | GI50 (SK-MEL-5): 1.09 µM (active) | GI50 (DMS-114): 1.92 µM (inactive) | GI50 (UACC-257): 1.53 µM (inactive) | GI50 (SF-295): 1.98 µM (inactive) | GI50 (A498): 3.71 µM (inactive) | GI50 (HCT-116): 4.95 µM (inactive) | GI50 (CAKI-1): 9.48 µM (inactive) | GI50 (TK-10): 14.2 µM (inactive) | GI50 (NCI/ADR-RES): 4.11 µM (inactive) | GI50 (MCF7): 1.67 µM (inactive) | GI50 (OVCAR-8): 6.38 µM (inactive) | GI50 (NCI-H460): 1.57 µM (inactive) | GI50 (786-0): 3.64 µM (inactive) | GI50 (NCI-H23): 2.33 µM (inactive) | GI50 (DU-145): 1.75 µM (inactive) | GI50 (A549): 1.95 µM (inactive) | GI50 (NCI-H522): 1.71 µM (inactive) | GI50 (EKVX): 5.78 µM (inactive) | GI50 (SK-OV-3): 13.9 µM (inactive) | GI50 (HCT-15): 1.67 µM | GI50 (KM12): 2.63 µM (inactive) | GI50 (SNB-19): 2.81 µM (inactive) | GI50 (UO-31): 3.72 µM (inactive) | GI50 (SR): 5.94 µM (inactive) | GI50 (HOP-62): 2.55 µM (inactive) | GI50 (SK-MEL-2): 1.91 µM (inactive) | GI50 (OVCAR-4): 3.93 µM (inactive) | GI50 (SN12C): 1.85 µM (inactive) | GI50 (ACHN): 2.82 µM (inactive) | GI50 (SF-268): 7.24 µM (inactive) | GI50 (HOP-18): 1.63 µM (inactive) | GI50 (MDA-MB-435): 0.925 µM (active) | GI50 (SNB-75): 1.69 µM (inactive) | GI50 (SF-539): 2.19 µM (inactive) | GI50 (Malme-3M): 1.06 µM (active) | GI50 (MOLT-4): 7.33 µM (inactive) | GI50 (PC-3): 5.25 µM (inactive) | GI50 (HL-60): 1.69 µM (inactive) | GI50 (IGROV-1): 7.28 µM (inactive) | GI50 (MDA-MB-231): 5.86 µM (inactive) | GI50 (K562): 4.34 µM (inactive) | GI50 (SW-620): 1.85 µM (inactive) | GI50 (HOP-92): 12.5 µM (inactive) | GI50 (DMS-273): 2.77 µM (inactive) | GI50 (M14): 1.59 µM (inactive) | GI50 (T47D): 16.7 µM (inactive) | GI50 (HCC 2998): 1.79 µM (inactive) | GI50 (CCRF-CEM): 12.3 µM (inactive) | GI50 (M19-MEL): 0.276 µM (active) | GI50 (OVCAR-5): 1.98 µM (inactive) | GI50 (RXF 393): 6.65 µM (inactive) | GI50 (HT-29): 3.49 µM (inactive) | GI50 (NCI-H226): 2.06 µM (inactive) | GI50 (Hs-578T): 2.08 µM (inactive) | GI50 (BT-549): 2.23 µM (inactive) | GI50 (MDA-N): 1.78 µM (inactive) | GI50 (LXFL 529): 5.86 µM (inactive) | GI50 (COLO 205): 1.83 µM (inactive) | GI50 (U-251): 4.75 µM (inactive) | GI50 (LOX IMVI): 1.43 µM (inactive)
